Biological target: β2 adrenergic receptor (Homo sapiens (Human), UniProt P07550)
Test: cAMP Gs dynamic HTRF assay, β2 expressing CHO cells
Type: cell-based
Settings: B2-AR; CHO-K1 (HitHunter); read-out: Average pEC50 [Receptor subtype: B2-AR; Cell type: CHO-K1 (HitHunter)] (converted)
Outline: (§1)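 Intracellular cAMP quantified by Eu-donor/d2-acceptor HTRF after 30 min compound exposure at 37° C in stimulation buffer with IBMX. Concentrations ran 10 μM top, 5-fold steps, 10 points. Cell lines: 1321N1 astrocytoma and CHO expressing β1 or β2; EC50 via four-parameter fit, relative efficacy against isoproterenol.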

Chain of β2 adrenergic receptor (P07550 whole entry, species assumed): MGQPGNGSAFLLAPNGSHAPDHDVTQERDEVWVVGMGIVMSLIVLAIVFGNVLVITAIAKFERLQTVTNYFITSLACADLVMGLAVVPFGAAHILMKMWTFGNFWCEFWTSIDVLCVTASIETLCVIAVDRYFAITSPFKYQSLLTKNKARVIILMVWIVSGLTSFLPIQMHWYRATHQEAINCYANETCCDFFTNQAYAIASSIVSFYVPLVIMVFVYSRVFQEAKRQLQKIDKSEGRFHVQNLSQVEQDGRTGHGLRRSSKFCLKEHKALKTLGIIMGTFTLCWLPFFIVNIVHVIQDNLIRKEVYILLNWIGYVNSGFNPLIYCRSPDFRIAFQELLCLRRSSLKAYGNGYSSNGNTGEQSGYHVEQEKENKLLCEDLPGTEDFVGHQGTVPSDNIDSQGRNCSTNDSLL

Row | SMILES | EC50 [nM]
1 | CC(C)(C)NC[C@H](O)c1cncc(C(F)(F)F)n1 [Compound 03-38] | 10 to 100
2 | CC(C)(C)NC[C@H](O)c1cccc(C(F)F)n1 [Compound 03-44] | 10 to 100
3 | CC(C)(C)NC[C@H](O)c1ccnc(C(F)(F)F)n1 [Compound 03-45] | 100 to 1000
4 | CCc1ncccc1[C@@H](O)CNC(C)(C)C [Compound 03-52] | 100 to 1000
5 | CC(C)(C)NC[C@H](O)c1cccnc1C1CCCC1 [Compound 03-53] | 10 to 100
6 | CC(C)Oc1ncccc1[C@@H](O)CNC(C)(C)C [Compound 03-57] | 10 to 100
7 | CCOc1ncccc1[C@@H](O)CNC(C)(C)C [Compound 03-58] | 10 to 100

Same assay, conditions: B2-AR; CHO-K cells; read-out: Average EC50 [Receptor subtype: B2-AR; Cell type: CHO-K]

Row | SMILES | EC50 [nM]
8 | CC(C)(C)NC[C@H](O)c1cncc(C(F)(F)F)n1 [Compound 03-38] | 10 to 100
9 | CC(C)(C)NC[C@H](O)c1cccc(C(F)F)n1 [Compound 03-44] | 10 to 100
10 | CC(C)(C)NC[C@H](O)c1ccnc(C(F)(F)F)n1 [Compound 03-45] | 100 to 1000
11 | [2H]C([2H])([2H])C(NCC(O)c1cccc(C(F)(F)F)n1)(C([2H])([2H])[2H])C([2H])([2H])[2H] (stereo not shown) [Compound 03-49] | 100 to 1000
12 | CC(C)(C)NC[C@H](O)c1cccnc1C1CCCC1 [Compound 03-53] | 10 to 100
13 | CC(C)Oc1ncccc1[C@@H](O)CNC(C)(C)C [Compound 03-57] | 10 to 100
14 | CCOc1ncccc1[C@@H](O)CNC(C)(C)C [Compound 03-58] | 10 to 100

Biological target: β1-adrenergic receptor (Homo sapiens (Human), UniProt P08588)
Test: cAMP Gs dynamic HTRF assay, β1 expressing CHO cells
Type: cell-based
Settings: B1-AR; CHO-K1 (HitHunter)
Outline: as §1

Chain of β1-adrenergic receptor (P08588 whole entry, species assumed): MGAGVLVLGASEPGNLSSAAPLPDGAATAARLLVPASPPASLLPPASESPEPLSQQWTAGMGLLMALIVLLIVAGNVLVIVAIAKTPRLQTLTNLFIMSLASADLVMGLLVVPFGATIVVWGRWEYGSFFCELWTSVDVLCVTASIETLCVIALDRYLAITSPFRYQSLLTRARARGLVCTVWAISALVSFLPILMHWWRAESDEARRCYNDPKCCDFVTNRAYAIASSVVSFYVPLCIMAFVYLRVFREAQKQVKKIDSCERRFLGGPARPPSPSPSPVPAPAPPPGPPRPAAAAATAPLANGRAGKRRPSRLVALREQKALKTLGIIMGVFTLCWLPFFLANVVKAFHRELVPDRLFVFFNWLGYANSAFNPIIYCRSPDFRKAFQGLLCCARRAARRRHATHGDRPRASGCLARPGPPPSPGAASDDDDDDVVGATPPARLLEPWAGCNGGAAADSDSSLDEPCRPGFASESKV

Row | SMILES | Average pEC50 [Receptor subtype: B1-AR; Cell type: CHO-K1 (HitHunter)]
15 | CC(C)(C)NC[C@H](O)c1cncc(C(F)(F)F)n1 [Compound 03-38] | C (C = <7-6)
16 | CC(C)(C)NC[C@H](O)c1cccnc1C1CCCC1 [Compound 03-53] | D (D < 6)
17 | CC(C)Oc1ncccc1[C@@H](O)CNC(C)(C)C [Compound 03-57] | C (C = <7-6)

Same assay, conditions: B1-AR; CHO-K1 (HitHunter); read-out: Average pEC50 [Receptor subtype: B1-AR; Cell type: CHO-K1 (HitHunter)] (converted)

Row | SMILES | EC50 [nM]
18 | CC(C)(C)NC[C@H](O)c1cccc(C(F)F)n1 [Compound 03-44] | 10 to 100
19 | CC(C)(C)NC[C@H](O)c1ccnc(C(F)(F)F)n1 [Compound 03-45] | 10 to 100
20 | [2H]C([2H])([2H])C(NCC(O)c1cccc(C(F)(F)F)n1)(C([2H])([2H])[2H])C([2H])([2H])[2H] (stereo not shown) [Compound 03-49] | > 1000
21 | CCc1ncccc1[C@@H](O)CNC(C)(C)C [Compound 03-52] | > 1000
22 | CCOc1ncccc1[C@@H](O)CNC(C)(C)C [Compound 03-58] | 10 to 100

Same assay, conditions: B1-AR; CHO-K cells; read-out: Average EC50 [Receptor subtype: B1-AR; Cell type: CHO-K]

Row | SMILES | EC50 [nM]
23 | CC(C)(C)NC[C@H](O)c1cncc(C(F)(F)F)n1 [Compound 03-38] | 100 to 1000
24 | CC(C)(C)NC[C@H](O)c1cccc(C(F)F)n1 [Compound 03-44] | 10 to 100
25 | CC(C)(C)NC[C@H](O)c1ccnc(C(F)(F)F)n1 [Compound 03-45] | 10 to 100
26 | [2H]C([2H])([2H])C(NCC(O)c1cccc(C(F)(F)F)n1)(C([2H])([2H])[2H])C([2H])([2H])[2H] (stereo not shown) [Compound 03-49] | > 1000
27 | CC(C)(C)NC[C@H](O)c1cccnc1C1CCCC1 [Compound 03-53] | > 1000
28 | CC(C)Oc1ncccc1[C@@H](O)CNC(C)(C)C [Compound 03-57] | 100 to 1000
29 | CCOc1ncccc1[C@@H](O)CNC(C)(C)C [Compound 03-58] | 10 to 100

Biological target: β2 adrenergic receptors in human astrocytoma cells (1321N1) (Homo sapiens (Human), UniProt P07550)
Test: cAMP HTRF assay in human astrocytoma cells (1321N1)
Type: cell-based
Settings: Endogenous receptor; 1321N1 cells
Method: cAMP homogeneous time-resolved fluorescence (HTRF). Compound efficacy was determined using the cAMP Gs dynamic HTRF assay (Cisbio, catalog #62AM4PEC) largely following the manufacturer's instructions, also detailed below.
Compound preparation. […] Standard serial dilution curves were 10-point, 5-fold dilutions starting from a highest concentration of 10 μM. […] Assay plates were centrifuged at 500×g for 10 seconds. Compounds and IBMX were prepared at 2× final dose to compensate for addition of cells.
Cell preparation. 1× stimulation buffer, washing PBS (Dulbecco's phosphate-buffered saline, −Mg −Ca; Caisson Labs, catalog #PBL01), assay PBS (Dulbecco's phosphate-buffered saline, +Mg, +Ca; Caisson Labs, catalog #PBL02) and Versene (0.02% EDTA disodium salt solution in PBS without calcium or magnesium; Caisson Labs, catalog #EDL01) were pre-warmed to 37° C. Cells expressing beta-adrenergic receptor were washed in washing PBS to remove growth medium and then released from the surface by incubating with Versene for 5-10 minutes at 37° C. Cells were harvested using assay PBS, counted manually by hemocytometer or by an automated cell counter, pelleted by centrifugation (200×g, 5 minutes) and resuspended in 37° C. 1× stimulation buffer to a final density of 1.5×10^6 cells/mL. 5 μL of the suspended cell solution (7500 cell total) were added to all wells of the 384 well assay plate, the assay plate was covered with an Axygen® plate seal (Corning PCR-SP) and incubated in a humidified 37° C. environment supplemented with 5% CO2 for 30 minutes.
HTRF reagent addition, reading and data analysis. After 30 minutes of cell stimulation with test compound, the assay plates were centrifuged at 500×g for 10 seconds, and incubation was stopped with the addition of 5 μL cAMP-D2 acceptor, diluted 1:21 in detection and lysis buffer 2 (Cisbio 62CL2FDF) was added to all cells. Subsequently, 5 μL Anti-cAMP-Eu Donor, diluted 1:21 in detection and lysis buffer 2, was added to cells. Plates were sealed and reactions gently ‘vortexed’ at 900 rpm on a Heidolph Titramax 1000 for at least 30 minutes at room temperature. Plates were centrifuged again at 500×g for 10 seconds, and HTRF was measured using a Tecan Spark plate reader at 50 flashes per well. […] Potency estimates (EC50) were derived from the four-parameter nonlinear regression of the concentration-effect curve and an estimate of relative efficacy was determined by comparing the magnitude of the test compound HTRF signal window (min−max dose) with the signal window of the full agonist control, isoproterenol.

Chain of β2 adrenergic receptors in human astrocytoma cells (1321N1) (P07550 whole entry): as the sequence (P07550 whole entry, species assumed) above

Row | SMILES | Average pEC50 [Receptor subtype: Endogenous; Cell type: 1321N1]
30 | CC(C)(C)NC[C@H](O)c1cncc(C(F)(F)F)n1 [Compound 03-38] | C (C = <7-6)
31 | CC(C)(C)NC[C@H](O)c1cccc(C(F)F)n1 [Compound 03-44] | C (C = <7-6)
32 | CC(C)(C)NC[C@H](O)c1cccnc1C1CCCC1 [Compound 03-53] | C (C = <7-6)
33 | CC(C)Oc1ncccc1[C@@H](O)CNC(C)(C)C [Compound 03-57] | C (C = <7-6)
34 | CCOc1ncccc1[C@@H](O)CNC(C)(C)C [Compound 03-58] | B (B = 8-7)

Same assay, conditions: Endogenous receptor; 1321N1 cells; read-out: Average EC50 [Receptor subtype: Endogenous; Cell type: 1321N1]

Row | SMILES | EC50 [nM]
35 | CC(C)(C)NC[C@H](O)c1cncc(C(F)(F)F)n1 [Compound 03-38] | 100 to 1000
36 | CC(C)(C)NC[C@H](O)c1cccc(C(F)F)n1 [Compound 03-44] | 100 to 1000
37 | CC(C)(C)NC[C@H](O)c1ccnc(C(F)(F)F)n1 [Compound 03-45] | < 10
38 | [2H]C([2H])([2H])C(NCC(O)c1cccc(C(F)(F)F)n1)(C([2H])([2H])[2H])C([2H])([2H])[2H] (stereo not shown) [Compound 03-49] | > 1000
39 | CC(C)(C)NC[C@H](O)c1cccnc1C1CCCC1 [Compound 03-53] | 100 to 1000
40 | CC(C)Oc1ncccc1[C@@H](O)CNC(C)(C)C [Compound 03-57] | 100 to 1000
41 | CCOc1ncccc1[C@@H](O)CNC(C)(C)C [Compound 03-58] | 10 to 100

Same assay, conditions: Endogenous receptor; 1321N1 cells; read-out: Average pEC50 [Receptor subtype: Endogenous; Cell type: 1321N1] (converted)

Row | SMILES | EC50 [nM]
42 | CCc1ncccc1[C@@H](O)CNC(C)(C)C [Compound 03-52] | > 1000

Biological target: B3-AR (Homo sapiens (Human), UniProt P13945)
Test: cAMP potency assay, B3-AR expressing CHO-K1 cells
Type: cell-based
Settings: not given

Chain of B3-AR (P13945 whole entry, species assumed): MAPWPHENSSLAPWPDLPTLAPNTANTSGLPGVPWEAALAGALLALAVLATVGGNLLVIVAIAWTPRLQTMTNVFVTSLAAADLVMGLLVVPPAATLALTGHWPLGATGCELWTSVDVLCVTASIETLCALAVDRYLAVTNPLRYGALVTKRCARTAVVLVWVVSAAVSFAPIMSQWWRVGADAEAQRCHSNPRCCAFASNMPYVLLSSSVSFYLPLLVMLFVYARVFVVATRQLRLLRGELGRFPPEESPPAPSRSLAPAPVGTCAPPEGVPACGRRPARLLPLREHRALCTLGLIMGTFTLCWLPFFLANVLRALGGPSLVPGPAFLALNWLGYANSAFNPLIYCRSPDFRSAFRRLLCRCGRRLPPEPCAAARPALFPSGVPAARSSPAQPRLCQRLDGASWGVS

Row | SMILES | Average pEC50 [Receptor subtype: B3-AR; Cell type: CHO-K1]
43 | CC(C)(C)NC[C@H](O)c1cccc(C(F)F)n1 [Compound 03-44] | D (D < 6)
44 | CCOc1ncccc1[C@@H](O)CNC(C)(C)C [Compound 03-58] | D (D < 6)

Same assay, conditions: read-out: Average EC50 [Receptor subtype: B3-AR, Cell type: CHO-K1]

Row | SMILES | EC50 [nM]
45 | CC(C)(C)NC[C@H](O)c1cncc(C(F)(F)F)n1 [Compound 03-38] | > 1000
46 | CC(C)(C)NC[C@H](O)c1cccc(C(F)F)n1 [Compound 03-44] | > 1000
47 | CC(C)(C)NC[C@H](O)c1ccnc(C(F)(F)F)n1 [Compound 03-45] | < 10
48 | [2H]C([2H])([2H])C(NCC(O)c1cccc(C(F)(F)F)n1)(C([2H])([2H])[2H])C([2H])([2H])[2H] (stereo not shown) [Compound 03-49] | > 1000
49 | CC(C)(C)NC[C@H](O)c1cccnc1C1CCCC1 [Compound 03-53] | > 1000
50 | CC(C)Oc1ncccc1[C@@H](O)CNC(C)(C)C [Compound 03-57] | > 1000
51 | CCOc1ncccc1[C@@H](O)CNC(C)(C)C [Compound 03-58] | > 1000

Same assay, conditions: read-out: Average pEC50 [Receptor subtype: B3-AR, Cell type: CHO-K1] (converted)

Row | SMILES | EC50 [nM]
52 | CC(C)(C)NC[C@H](O)c1cncc(C(F)(F)F)n1 [Compound 03-38] | > 1000
53 | CCc1ncccc1[C@@H](O)CNC(C)(C)C [Compound 03-52] | > 1000
54 | CC(C)(C)NC[C@H](O)c1cccnc1C1CCCC1 [Compound 03-53] | > 1000
55 | CC(C)Oc1ncccc1[C@@H](O)CNC(C)(C)C [Compound 03-57] | > 1000

— patent US10947196B2, “Beta adrenergic agonist and methods of using the same” (CURASEN THERAPEUTICS, INC., priority 2019, dated 2021)
